{
  "source": "patent US11365410B2",
  "about": "“Production and monitoring of metabolites in cells” (President and Fellows of Harvard College, priority 2015, dated 2022)",
  "key": {"prpR (E. coli)": {"tested_on": "prpR (E. coli)", "test": "prpR-based 3HP biosensor induction (indirect, via 2-methylcitrate)", "assay_type": "cell-based", "details": "12 mM 3-HP; with pcs and prpC", "source_text": "According to a first aspect, 3-HP is transformed into 2-methylcitrate in the presence of a 2-methylcitrate sensor. The resulting system is a 3-HP biosensor. The transcriptional regulator prpR from E. coli is used to control gene expression in proportion to the concentration of 2-methylcitrate inside the cell. This inducible system has been described previously with the aim of sensing propionate—a distinct chemical from 3HP (WO 2007005837 A3, http://www.ncbi.nlm.nih.gov/pubmed/16269719). The endogenous enzyme, 2-methylcitrate synthase (prpC), and the heterologous multifunctional enzyme propionyl-CoA synthase (pcs) from the carbon fixation pathway of Chloroflexus aurantiacus (see Mattozzi, M., Ziesack, M., Voges, M. J., Silver, P. A. and Way, J. C. (2013) Expression of the sub-pathways of the Chloroflexus aurantiacus 3-hydroxypropionate carbon fixation bicycle in E. coli: Toward horizontal transfer of autotrophic growth. Metab Eng, 16, 130-139 hereby incorporated by reference in its entirety) are used to produce 2-methylcitrate from 3-HP. Together the system of three genes (pcs, prpC, prpR) comprises the prpR-based 3HP biosensor (see FIG. 15A). […] As a result of this linkage, 3-HP concentration controls expression of green fluorescent protein (GFP). […] The proportion of 2-methylcitrate produced in this way is proportional to the amount of 3-HP inside the cell. […]"}, "[1]": {"tested_on": "prpR-based 3HP biosensor (pcs, prpC, prpR)", "test": "prpR-based 3HP biosensor characterization", "assay_type": "cell-based, E. coli", "source_text": "According to a first aspect, 3-HP is transformed into 2-methylcitrate in the presence of a 2-methylcitrate sensor. The resulting system is a 3-HP biosensor. The transcriptional regulator prpR from E. coli is used to control gene expression in proportion to the concentration of 2-methylcitrate inside the cell. This inducible system has been described previously with the aim of sensing propionate—a distinct chemical from 3HP (WO 2007005837 A3, http://www.ncbi.nlm.nih.gov/pubmed/16269719). The endogenous enzyme, 2-methylcitrate synthase (prpC), and the heterologous multifunctional enzyme propionyl-CoA synthase (pcs) from the carbon fixation pathway of Chloroflexus aurantiacus (see Mattozzi, M., Ziesack, M., Voges, M. J., Silver, P. A. and Way, J. C. (2013) Expression of the sub-pathways of the Chloroflexus aurantiacus 3-hydroxypropionate carbon fixation bicycle in E. coli: Toward horizontal transfer of autotrophic growth. Metab Eng, 16, 130-139 hereby incorporated by reference in its entirety) are used to produce 2-methylcitrate from 3-HP. Together the system of three genes (pcs, prpC, prpR) comprises the prpR-based 3HP biosensor (see FIG. 15A). […] As a result of this linkage, 3-HP concentration controls expression of green fluorescent protein (GFP). […] The proportion of 2-methylcitrate produced in this way is proportional to the amount of 3-HP inside the cell. The expression of the controlled gene is thus a measurement of intracellular 3-HP concentration.\nDH5α cells doubly transformed with plasmids pPro24-GFP and pJKR-PCS, or plasmids pJKR-H-acuR and pJKR-PCSfrag-ACH, were exposed to increasing concentrations of 3-HP and monitored for GFP expression. Cells were grown overnight to saturation before being diluted 1:100 into fresh LB media and incubated at 200 RPM and 37° C. After four hours, 150 μl of the log-phase cells were transferred to 96-well plates and 3HP was added to the appropriate final concentration. Each inoculation and induction was performed in triplicate. Strains lacking the biosensor helper plasmids were included to reveal that the biosensor activation was indeed dependent on the presence of the helper plasmids. In the case of the end-point measurements, fluorescence was measured 16 hours after 3-HP addition with a Biotek HT plate reader (excitation 485/20, emission 528/20). Time course data was collected over a 16 hour period on the same plate reader at 37° C. with fast shaking and 10 minute measurement intervals. Fluorescence was normalized by optical density. Fold induction was determined by dividing the fluorescence obtained at the current induction level by the fluorescence obtained without induction. Error bars represent the 95% confidence interval derived from the standard error of the mean."}, "acuR": {"tested_on": "acuR", "test": "acuR-based 3HP biosensor induction (indirect, via acrylate)", "assay_type": "cell-based, Rhodobacter sphaeroides", "details": "10 mM 3HP; with pcs^Δ3 and ach", "procedure": "Metab Eng, 16, 130-139 hereby incorporated by reference in its entirety). All three reactions are useful for a prpR-based biosensor, but for the acuR-based biosensor, accumulation of acrylyl-CoA rather than propionyl-CoA is necessary. […] Accordingly, the domain responsible for conversion of acrylyl-CoA to propionyl-CoA was removed while preserving the activity of the other two domains. […] A 90-fold increase in fluorescence was obtained when the acuR-based biosensor was induced with 10 mM 3HP. […] Fluorescence remained at background levels for greater than 16 hours in the absence of pcs^Δ3 and ach (see FIG. 17).\nPlasmids were constructed using Gibson isothermal assembly methods (see Gibson, D. G., Young, L., Chuang, R. Y., Venter, J. C., Hutchison, C. A., 3rd and Smith, H. O. (2009) Enzymatic assembly of DNA molecules up to several hundred kilobases. Nat Methods, 6, 343-345 hereby incorporated by reference in its entirety) and cloned into DH5α electrocompetent cells purchased from New England Biolabs. Biosynthesis of product molecules was carried out in either BL21 (DE3) or DH5α. The prpR-based 3HP biosensor was implemented as a two-plasmid system. The first plasmid is pPro24-GFP (Addgene plasmid #18880), which expresses GFPuv under the control of the methyl-citrate responsive transcription factor, prpR, on a pBR322 origin of replication providing β-lactam resistance. […]"}},
  "data": [
    {"smiles": "O=C(O)CCO", "note": "[3-HP, 3-hydroxypropionate]", "values": [
      {"measurement": "Fluorescent response relative to uninduced", "setting": "prpR (E. coli)", "result": 2.4, "unit": "fold"},
      {"measurement": "time to half-maximal fluorescent response", "setting": "[1]; 3-HP induction", "result": 5, "unit": "h"},
      {"measurement": "time to reach 90% induction", "setting": "[1]; 3-HP induction", "result": "approximately 8 hours"},
      {"measurement": "fluorescent response, fold greater than uninduced fluorescence", "setting": "[1]; induced with 12 mM 3-HP", "result": 2.4, "unit": "fold"},
      {"measurement": "response of prpR sensor alone", "setting": "[1]; without helper enzyme pcs", "result": "cannot detect"},
      {"measurement": "Increase in fluorescence", "setting": "acuR", "result": 90, "unit": "fold"}
    ]}
  ]
}
